Some test systems named below: PC-3 prostate; HT29 colon; CCRF-CEM leukemia; MOLT-4 leukemia; K-562 leukemia; NCI-H460 lung; T-47D breast; OVCAR-4 ovarian; BT-549 breast; HS 578T breast.
Experiment in all cases: NCI tumour cell line growth inhibition, 48 h

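Dose response: 5 concentrations. Exposure: 48 h. Format: 96-well plates. Endpoint: linear interpolation; highest concentration if not reached. TGI: concentration producing complete growth inhibition.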

Consider `FC1=C2C3CCC(C3)C2C1(F)F` (stereo not given), for which the TGI with PC-3 prostate, in the assay with HT29 colon, in the assay with CCRF-CEM leukemia, in the assay on MOLT-4 leukemia, with K-562 leukemia and in the assay on NCI-H460 lung was more than 100 µM in each case. Further, the TGI with T-47D breast and in the assay with OVCAR-4 ovarian was more than 100 µM in each case.

In the case of `CC(=O)C(=Cc1cn(C)c(=O)n(C)c1=O)C(C)=O`, the TGI with HT29 colon was 278 µM; with CCRF-CEM leukemia, 294 µM; with MOLT-4 leukemia it was 382 µM; in the assay on K-562 leukemia, 465 µM; with NCI-H460 lung, 231 µM; in the assay on OVCAR-4 ovarian, 273 µM.

Turning to `N#Cc1c(-c2ccc([N+](=O)[O-])cc2)c(C#N)c(=O)n(NS(=O)(=O)c2ccccc2)c1S`, the TGI in the assay with PC-3 prostate was more than 100 µM; in the assay on BT-549 breast it was 39.2 µM; in the assay with HT29 colon it was more than 100 µM; in the assay on CCRF-CEM leukemia it was 49.3 µM; with MOLT-4 leukemia it was 46.5 µM; in the assay on K-562 leukemia it was 77.4 µM. The TGI is 58.5 µM in the assay on HS 578T breast, more than 100 µM in the assay with NCI-H460 lung and more than 100 µM with OVCAR-4 ovarian.

In the case of `CC1=C(CO)C(=O)OC(C(C)C2CCC3C4CC5OC56C(O)C(N5CC5)=CC(=O)C6(C)C4CCC23C)C1` (stereo not given), the TGI in the assay on HT29 colon worked out at 13.7 µM; in the assay on CCRF-CEM leukemia, 7.45 µM; in the assay on MOLT-4 leukemia, 8.52 µM; in the assay on K-562 leukemia, 14.2 µM; with NCI-H460 lung, 25 µM; in the assay on OVCAR-4 ovarian, 20.6 µM.

In the case of `C=C(NC(=O)C(=C)NC(=O)c1ccc2c(n1)-c1coc(n1)C(=C)NC(=O)C(=C)NC(=O)c1nc(oc1C)C(=C)NC(=O)C(C(C)(C)O)NC(=O)C(=C)NC(=O)c1coc(n1)/C(=C/C)NC(=O)[C@H]([C@@H](C)O)NC(=O)c1csc-2n1)C(N)=O` (stereo not given in full), the TGI is more than 87.5 µM in the assay with PC-3 prostate; more than 87.5 µM in the assay with BT-549 breast; more than 8.75 µM with HT29 colon; more than 87.5 µM in the assay with CCRF-CEM leukemia; more than 87.5 µM in the assay on MOLT-4 leukemia; more than 87.5 µM with K-562 leukemia. Also, the TGI in the assay on HS 578T breast, with NCI-H460 lung and in the assay with OVCAR-4 ovarian was more than 87.5 µM each time.

As to `O=C(O)C(Cc1ccccc1)NCc1c(O)ccc2c(-c3ccccc3)cc(=O)oc12` (stereo not given), the TGI with PC-3 prostate, with HT29 colon, in the assay on CCRF-CEM leukemia, in the assay with MOLT-4 leukemia, in the assay on K-562 leukemia and in the assay with HS 578T breast was more than 100 µM in each case. The TGI in the assay with NCI-H460 lung, in the assay on T-47D breast and with OVCAR-4 ovarian was more than 100 µM throughout.

Turning to `COC(=O)[C@]1(c2cc3ccccc3n2S(=O)(=O)c2ccccc2)CC2CN(C(=O)OCc3ccccc3)C1C1OC(C)(C)OC21` (stereo not given in full), the TGI with PC-3 prostate, in the assay on BT-549 breast, in the assay on HT29 colon, in the assay with CCRF-CEM leukemia, in the assay with MOLT-4 leukemia and with HS 578T breast was more than 100 µM each time. The TGI in the assay with NCI-H460 lung and with OVCAR-4 ovarian was more than 100 µM in each case.

Consider `CC(=O)CC1(CBr)Nc2ccc([N+](=O)[O-])cc2NC1=O` (stereo not given), for which the TGI in the assay on PC-3 prostate, with BT-549 breast, in the assay on HT29 colon, with CCRF-CEM leukemia, in the assay with MOLT-4 leukemia and in the assay with K-562 leukemia was more than 100 µM throughout. Further, the TGI with NCI-H460 lung, in the assay with T-47D breast and with OVCAR-4 ovarian was more than 100 µM throughout.

In the case of `O=C(O)c1c(CC(Cc2ccc3c(c2)CCC3)C(=O)O)ccc2c1CCC2` (stereo not given), the TGI in the assay on PC-3 prostate, in the assay on BT-549 breast, in the assay with HT29 colon, with CCRF-CEM leukemia, with MOLT-4 leukemia and in the assay on K-562 leukemia was more than 100 µM throughout. In addition, the TGI in the assay on HS 578T breast, in the assay with NCI-H460 lung and in the assay with OVCAR-4 ovarian was more than 100 µM throughout.

As for `COC(=O)c1c2c(cc3c1CC1(Cc4cc5c(c(C=O)c4C1)CCC5)C3)CCC2` (stereo not given), the TGI in the assay on PC-3 prostate is more than 100 µM; in the assay on HT29 colon, 79.2 µM; in the assay on CCRF-CEM leukemia, 56.7 µM; in the assay with MOLT-4 leukemia, 59.1 µM; in the assay on K-562 leukemia it was more than 100 µM; in the assay on HS 578T breast, more than 100 µM. Moreover, the TGI in the assay with NCI-H460 lung, in the assay with T-47D breast and with OVCAR-4 ovarian was more than 100 µM each time.

Turning to `O=c1[nH]c(=O)n(COC(CO)CO)cc1-c1ccccc1`, the TGI in the assay with PC-3 prostate, with HT29 colon, in the assay on CCRF-CEM leukemia, with MOLT-4 leukemia, in the assay on K-562 leukemia and with HS 578T breast was more than 100 µM in each case. For the same molecule, the TGI in the assay on NCI-H460 lung, in the assay with T-47D breast and with OVCAR-4 ovarian was more than 100 µM throughout.

With `NC(=O)CCC(N=c1c2ccccc2n(O)c2ccccc12)C(=O)O` (stereo not given), the TGI in the assay on CCRF-CEM leukemia, in the assay with MOLT-4 leukemia, in the assay on K-562 leukemia, in the assay with NCI-H460 lung and in the assay on OVCAR-4 ovarian was more than 100 µM in each case.

Turning to `CC(=O)n1[nH]c(=O)n(-c2ccc(Cl)cc2)c1=O`, the TGI in the assay on PC-3 prostate, in the assay on BT-549 breast, in the assay with HT29 colon, in the assay on CCRF-CEM leukemia, in the assay on MOLT-4 leukemia and in the assay with K-562 leukemia was more than 100 µM in each case. The TGI in the assay on NCI-H460 lung, in the assay on T-47D breast and with OVCAR-4 ovarian was more than 100 µM in each case.

Consider `O=C(CNc1ccccc1C(=O)O)Nn1cnc2ccc(S(=O)(=O)Nc3ccccc3C(=O)O)cc2c1=O`, for which the TGI with PC-3 prostate, in the assay on BT-549 breast, with HT29 colon, in the assay with CCRF-CEM leukemia, with MOLT-4 leukemia and with K-562 leukemia was more than 100 µM in each case. The TGI with HS 578T breast, in the assay on NCI-H460 lung and with OVCAR-4 ovarian was more than 100 µM in each case.

In the case of `CC(C)CCCC(C)[C@H]1CCC(C2C[C@@H](O)[C@@H]3CC(O)[C@@H](O)C[C@]3(CO)C2=O)[C@]1(C)CCO` (stereo not given in full), the TGI with HT29 colon is 36.3 µM; with CCRF-CEM leukemia it was 40.9 µM; in the assay with MOLT-4 leukemia, 22.4 µM; with K-562 leukemia it was 61.2 µM; in the assay on NCI-H460 lung it was 45.2 µM; in the assay with OVCAR-4 ovarian, more than 83.8 µM.

The record behind these values is PubChem BioAssay (NCI).
